US7629150B2, “Transformed cell harboring DNA or RNA encoding sugar chain synthesizing agent having β1,3-N-acetylglucosaminyltransferase activity” (Kyowa Hakko Kirin Co., Ltd., priority 2000, dated 2009)

Tests used:
Assay type in all cases: biochemical
[1] = molecular target: T1, G6sec2 (Homo sapiens, UniProt Q9BYG0); experiment: β1,3-N-acetylglucosaminyltransferase activity of purified FLAG peptide-fused G6 polypeptide, 2-aminobenzamide-labeled oligosaccharide substrates; settings: second enzyme-adsorbed ANTI-FLAG M1 AFFINITY GEL (printed G6sec1-adsorbed gel) used as enzyme
T1 construct: made in house; host or cells: Sf21 insect cells infected with pVL1393-F2G6sec2-derived recombinant baculovirus
T1 sequence (Q9BYG0 39-378): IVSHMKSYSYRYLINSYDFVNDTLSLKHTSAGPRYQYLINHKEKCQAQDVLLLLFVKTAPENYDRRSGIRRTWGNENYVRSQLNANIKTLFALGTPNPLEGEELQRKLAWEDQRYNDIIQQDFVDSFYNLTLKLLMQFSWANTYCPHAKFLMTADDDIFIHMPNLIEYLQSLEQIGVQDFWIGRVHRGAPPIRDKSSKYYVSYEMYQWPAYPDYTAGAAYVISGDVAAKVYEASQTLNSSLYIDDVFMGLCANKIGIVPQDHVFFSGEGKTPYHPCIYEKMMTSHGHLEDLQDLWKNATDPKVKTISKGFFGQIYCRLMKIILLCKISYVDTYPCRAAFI

[2] = molecular target: T1, G6sec2; experiment: β1,3-N-acetylglucosaminyltransferase activity using pyridylaminated oligosaccharides as substrates; settings: 37° C., 14.5 hours
Protocol: After carrying out the reaction at 37° C. for 14.5 hours in 30 μl of an assay solution [150 mmol/l sodium cacodylate (pH 7.2), 50 mmol/l UDP-GlcNAc (manufactured by SIGMA), 0.4% Triton CF-54, 10 mmol/l MnCl2, 50 μmol/l pyridylaminated sugar chain substrate, a purified enzyme solution (G6sec2)], the product was detected by HPLC. The purified enzyme (G6sec2) was obtained according to the method shown in Example 8(6). The purified enzyme (280 μl) was prepared from 30 ml of a culture supernatant of Sf21 infected with the recombinant virus derived from pVL1393-F2G6sec2, and the assay was carried out using 5 μl thereof. As substrates, LnNT, lacto-N-tetraose (Galβ1-3GlcNAcβ1-3Galβ1-4Glc (hereinafter referred to as “LNT”), lacto-N-fucopentaose II (Galβ1-3(Fucα1-4)GlcNAcβ1-3Galβ1-4Glc; hereinafter referred to as “LNFP-II”), lacto-N-fucopentaose III (Galβ1-4(Fucα1-3)GlcNAcβ1-3Galβ1-4Glc; hereinafter referred to as “LNFP-III”), lacto-N-fucopentaose V (Galβ1-3GlcNAcβ1-3Galβ1-4(Fucα1-3)Glc; hereinafter referred to as “LNFP-V”), and lacto-N-difucohexaose II (Galβ1-3(Fucα1-4)GlcNAcβ1-3Galβ1-4(Fucα1-3)Glc; hereinafter referred to as “LNDFH-II”) (all manufactured by Oxford Glycosystems) were fluorescently-labeled with aminopyridine and used. The substrates were fluorescently-labeled according to a conventional method [Agric. Biol. Chem., 54, 2169 (1990)].
After carrying out the reaction on each substrate using an assay solution containing UDP-GlcNAc (saccharide donor) and an assay solution containing no donor and subsequently analyzing by HPLC, peaks appeared only in the assay solution containing UDP-GlcNAc was defined as products.
The assay solution after completion of the reaction was treated at 100° C. for 5 minutes and then centrifuged at 10,000×g for 5 minutes to obtain a supernatant, and a part thereof (5 μl) was subjected to HPLC.
The HPLC was carried out using TSK-gel ODS-80Ts Column (4.6×300 mm; manufactured by TOSOH) and 0.02 mol/l ammonium acetate buffer (pH 4.0) as the eluant at an elution temperature of 50° C. and a flow rate of 0.5 ml/min.
Detection and determination of products were carried out using a fluorescence spectrophotometer FP-920 (manufactured by JASCO Corporation) (excitation wavelength: 320 nm, radiation wavelength: 400 nm).

[3] = molecular target: T1, G6sec2; experiment: β1,3-N-acetylglucosaminyltransferase activity using unlabeled oligosaccharides as substrates (HPAE/PAD); settings: unlabeled oligosaccharide 10 mmol/l, 37° C., 16 hours
Protocol: The glycosyltransferase reaction was carried out as follows. The reaction was carried out at 37° C. for 16 hours in 40 μl of an assay solution [50 mmol/l MOPS (pH 7.5), 5 mmol/l UDP-GlcNAc (manufactured by SIGMA), 5 mmol/l MnCl2, 10 mmol/l sugar chain substrate, a purified enzyme solution (G6sec2)]. Next, the mixture was treated at 100° C. for 5 minutes and then centrifuged at 10,000×g for 20 minutes to obtain a supernatant, and a part thereof was analyzed using HPAE/PAD ([…]; manufactured by DIONEX). The method was specifically carried out according to a conventional method [Anal. Biochem., 189, 151-162 (1990), J. Biol. Chem., 273, 433-440 (1998)].
As a purified enzyme (G6sec2), […] of the enzyme obtained in the above (2) was used. As substrates, unlabeled oligosaccharides [lactose (Galβ1-4Glc) and LNnT] were used.
After the reaction on each substrate using an assay solution containing UDP-GlcNAc (saccharide donor) and an assay solution containing no donor, analysis was carried out using HPAE/PAD and peaks appeared only in the assay solution containing UDP-GlcNAc were defined as products. The product was identified using coincidence of its elution time with that of standard sugar chain as the index. As standard sugar chains, GlcNAcβ1-3Galβ1,4Glc and GlcNAcβ1-3Galβ1,4GlcNAcβ1-3Galβ1-4Glc were used.

conversion efficiency of the substrate [1]: 20.2% | Relative activity (%) ([2]; pyridylaminated oligosaccharides 50 μmol/l, LNnT defined as 100%): 100% | conversion efficiency of the substrate into the product ([2]; pyridylaminated substrate 50 μmol/l): 12.8% | conversion efficiency into the product [3]: 0.48%
SMILES: CC(=O)N[C@H]1[C@H](O[C@H]2[C@@H](O)[C@@H](CO)O[C@@H](O[C@H]3[C@H](O)[C@@H](O)C(O)O[C@@H]3CO)[C@@H]2O)O[C@H](CO)[C@@H](O[C@@H]2O[C@H](CO)[C@H](O)[C@H](O)[C@H]2O)[C@@H]1O (mixture of isomers) [LNnT, lacto-N-neotetraose]
